3 compounds from patent US8399511B2, “Two types of crystalline of pinocembrin, their preparation and their use for manufacture of pharmaceutical compositions” (CSPC Zhongqi Pharmaceutical Technology (Shijiazhuang) Co., …, priority 2008, dated 2013) can be followed below.

SMILES strings stand for the structures.

A short description of this data set: In vivo absorption and blood concentration after oral administration of pinocembrin crystalline forms. The conditions noted are these: for Blood concentration of pinocembrin: fasted SD rats, arterial blood, HPLC, group average, 50 mg/kg. More on the design: species or system SD rats. On the procedure: • 1. Monocrystal X-ray analysis • Instrument: MAC DIP-2030K area detector • Test condition: tube voltage: 50 KV, tube flow: 80 mA, ω scanning, MoKα, 2θ≦50.0°, scan range: 0-180°, pivot angle: 6°, step: 6°, scan rate: 1.8°/min. • 2. Powder X-ray analysis • Instrument: Rigaku D/max 2550 powder X-ray diffractometer • Test conditions: voltage: 40 KV, current: 150 mA, scan rate: 8°/min. • 3. DSC analysis • Instrument type: Seiko Instruments Inc. Differential Scanning Calorimeter • Test conditions: purge gas: N2, heating rate: 10° C. /min. • Temperature range: 25-250° C. • 4. IR absorbance spectra • Instrument Nicolet FT-IR spectrometer: IMPACT 400 • Test conditions: KBr pellet • 5. HPCL analysis • Instrument: SHIMADZU LC-10Avp high performance liquid chromatography, SPD-M10Avp diode array detector, CLASS-VP chromatography data system; column: Alltch C18(5μ, 150×4.6 mm); test conditions: column temperature: room temperature; wavelength: 290 nm; mobile phase: methanol/phosphate saline pH 3.0 (64/36); flow rate : 1.0 mL/min; injection volume: 20 μL; injection concentration: 500.0 μg/mL Preparation 1: Synthesis of Pinocembrin Sample
18 of SD rats, female and male each half, with body weight of 230˜250 g, were randomized into 3 groups, with 6 rats each group and female half. After 10 hours of fasting but free water intake, the rats were administrated with pinocembrin solid active ingredient powder of α, β or 1:1 (α+β) mixed crystalline forms, at a dose of 50 mg/kg to stomach. Then the arterial blood samples at different times were taken and the contents of pinocembrin were determined.

Setting [1] is: 10 min after oral (to stomach) 50 mg/kg solid powder.
The mark [2] stands for this setting: 20 min after oral (to stomach) 50 mg/kg solid powder.
Where [3] appears, read: 30 min after oral (to stomach) 50 mg/kg solid powder.
The mark [4] stands for this setting: 40 min after oral (to stomach) 50 mg/kg solid powder.

Consider `O=C1C[C@@H](c2ccccc2)Oc2cc(O)cc(O)c21` (stereo in doubt) [1:1 (α + β) crystalline forms, 5,7-dihydroxy-2-phenyl-4-chromanone], for which the “Blood concentration of pinocembrin” value is given as 8.5 peak area value under setting [1], 15.6 peak area value under setting [2], 7.9 peak area value under setting [3] and 7.1 peak area value under setting [4].
For `O=C1C[C@@H](c2ccccc2)Oc2cc(O)cc(O)c21` (stereo in doubt) [α crystalline form, 5,7-dihydroxy-2-phenyl-4-chromanone], the “Blood concentration of pinocembrin” value runs as follows: under setting [1], 3.8 peak area value; under setting [2], 9.7 peak area value; under setting [3], 4.4 peak area value; under setting [4], 3.5 peak area value. Besides, the “Blood concentration compared with β crystalline form” value (same dosage (50 mg/kg) by oral administration, rats) is on record as “obviously lower”.
Regarding `O=C1C[C@@H](c2ccccc2)Oc2cc(O)cc(O)c21` (stereo in doubt) [β crystalline form, 5,7-dihydroxy-2-phenyl-4-chromanone], the “Blood concentration of pinocembrin” value reads like this: (10 min after oral (to stomach) 50 mg/kg solid powder, listed as β crystalline from) 13.2 peak area value; (20 min after oral (to stomach) 50 mg/kg solid powder, listed as β crystalline from) 48.6 peak area value; (30 min after oral (to stomach) 50 mg/kg solid powder, listed as β crystalline from) 14.6 peak area value; (40 min after oral (to stomach) 50 mg/kg solid powder, listed as β crystalline from) 14.2 peak area value. For the setting “rat, in vivo”, the “Uptake rate by organism relative to α crystalline form” value is given as no less than 2 times.
